Measured values taken from US7968526B2, “Antisense oligonucleotides directed to ribonucleotide reductase R2 and uses thereof in the treatment of cancer” (Lorus Therapeutics Inc., priority 2003, dated 2011).
Entries after “also recorded” stand apart in the source; their conditions may differ.

Key:
[1] = test system: MDA-CDDP-S4 human in vivo-selected Cisplatin-resistant breast adenocarcinoma cells; assay: MDA-CDDP-S4 Cisplatin-resistant breast adenocarcinoma, fat pad, CB-17 SCID mice, combination with Taxol (2.4); parameters: species or system human cells in mice; details: MDA-CDDP-S4 (breast), Cisplatin resistant, SCID, SEQ ID NO:1 10 mg/kg i.v. every other day, Taxol 10 mg/kg i.p. weekly
Experimental: (§1) BxPC-3 is a gemcitabine resistant call line. […] Gemcitabine was administered intravenously every three days at a dose of 100 mg/kg. Antitumour activities were estimated by the inhibition of tumour volume, which was measured with caliper. Each point represents mean tumour volume calculated from 10 animals per experimental group. […] Hela S3 is a hydroxyurea resistant cell line. […] Hydroxyurea was administered intraperitoneally every day at a dose of 250 mg/kg for 10 days. Cisplatin was administered intravenously once a week for three weeks at a dose of 4 mg/kg. Antitumour activities were estimated by the inhibition of tumour volume, which was measured with caliper. Each point represents mean tumour volume calculated from 10 animals per experimental group. […] Cisplatin was administered intravenously once a week for three weeks at a dose of 4 mg/kg. Taxol was administered intravenously once a week for three weeks at a dose of 10 mg/kg. Antitumour activities were estimated by the inhibition of tumour volume, which was measured with caliper. Each point represents mean tumour volume calculated from 10 animals per experimental group. […] Taxol was administered i.p. once a week at a dose of 10 mg/kg. Antitumour activities were estimated by the inhibition of tumour volume (FIG. 12A), which was measured with calipers. Each point represents mean tumour volume calculated from 10 animals per experimental group. Animals were sacrificed and tumour weights taken at the end of the study (FIG. 12C). […] Cisplatin was administered intravenously once a week for four weeks at a dose of 4 mg/kg. Taxol was administered intravenously once a week for four weeks at a dose of 20 mg/kg. Antitumour activities were estimated by the inhibition of tumour volume, which was measured with caliper. Each point represents mean tumour volume calculated from 9-10 animals per experimental group. […] Cisplatin was administered intravenously once a week for four weeks at a dose of 4 mg/kg. Antitumour activities were estimated by the inhibition of tumour volume, which was measured with caliper. Each point represents mean tumour volume calculated from 10 animals per experimental group. At the end of the study the animals were sacrificed and tumours weighed. […] Taxol was administered i.p. once a week at a dose of 10 mg/kg. Anti-tumour activity was estimated by the inhibition of tumour volume, which was measured with caliper. Each point represents mean tumour volume calculated from 10 animals per experimental group. In addition animals were sacrificed and tumour weights taken at the end of the study. […] CPT-11 was administered i.p. for 5 days at a dose of 20 mg/kg/day. Antitumour activities were estimated by the inhibition of tumour volume, which was measured with caliper. Each point represents mean tumour volume calculated from 10 animals per experimental group. Tumour weights were measured after animals were sacrificed at the end of the treatment. These cells are not resistant to CPT-11 which was used as a positive control.

[2] = test system: Human taxol-resistant promyelocytic leukaemia cells (HL-60); assay: HL-60 taxol-resistant promyelocytic leukaemia tumour in SCID mice (2.7); assay type: in vivo, human cells in mice; details: SEQ ID NO:1 10 mg/kg i.v. every other day
Experimental: BxPC-3 is a gemcitabine resistant call line. […] Gemcitabine was administered intravenously every three days at a dose of 100 mg/kg. Antitumour activities were estimated by the inhibition of tumour volume, which was measured with caliper. Each point represents mean tumour volume calculated from 10 animals per experimental group. […] Hela S3 is a hydroxyurea resistant cell line. […] Hydroxyurea was administered intraperitoneally every day at a dose of 250 mg/kg for 10 days. Cisplatin was administered intravenously once a week for three weeks at a dose of 4 mg/kg. Antitumour activities were estimated by the inhibition of tumour volume, which was measured with caliper. Each point represents mean tumour volume calculated from 10 animals per experimental group. […] Cisplatin was administered intravenously once a week for three weeks at a dose of 4 mg/kg. Taxol was administered intravenously once a week for three weeks at a dose of 10 mg/kg. Antitumour activities were estimated by the inhibition of tumour volume, which was measured with caliper. Each point represents mean tumour volume calculated from 10 animals per experimental group. […] Taxol was administered i.p. once a week at a dose of 10 mg/kg. Antitumour activities were estimated by the inhibition of tumour volume (FIG. 12A), which was measured with calipers. Each point represents mean tumour volume calculated from 10 animals per experimental group. Animals were sacrificed and tumour weights taken at the end of the study (FIG. 12C). […] Cisplatin was administered intravenously once a week for four weeks at a dose of 4 mg/kg. Taxol was administered intravenously once a week for four weeks at a dose of 20 mg/kg. Antitumour activities were estimated by the inhibition of tumour volume, which was measured with caliper. Each point represents mean tumour volume calculated from 9-10 animals per experimental group. […] Cisplatin was administered intravenously once a week for four weeks at a dose of 4 mg/kg. Antitumour activities were estimated by the inhibition of tumour volume, which was measured with caliper. Each point represents mean tumour volume calculated from 10 animals per experimental group. At the end of the study the animals were sacrificed and tumours weighed. […] Taxol was administered i.p. once a week at a dose of 10 mg/kg. Anti-tumour activity was estimated by the inhibition of tumour volume, which was measured with caliper. Each point represents mean tumour volume calculated from 10 animals per experimental group. […] Antitumour activities were estimated by the inhibition of tumour volume, which was measured with caliper. Each point represents mean tumour volume calculated from 10 animals per experimental group. Tumour weights were measured after animals were sacrificed at the end of the treatment. […]

[3] = test system: MDA-MB435-To.1 human Taxol-resistant breast adenocarcinoma cells; assay: MDA-MB435-To.1 Taxol-resistant breast adenocarcinoma, fat pad, SCID mice (2.5); assay type: in vivo, human cells in mice
Experimental: as §1

[4] = test system: MDA-MB-231 human breast cancer cells; assay: MDA-MB-231 breast tumour xenograft in CD-1 nude mice, combination with taxol or doxorubicin (1.7); assay type: in vivo, human cells in mice; details: MDA-MB-231 (breast), CD-1; SEQ ID NO:1 10 mg/kg i.v. every other day; Taxol 10 mg/kg i.v. weekly; doxorubicin 5 mg/kg i.v. weekly
Experimental: (§2) After 52 days the mice were sacrificed and the tumours weighed. […] Mitoxantrone was administered intravenously once at the beginning of the treatments at a dose of 2 mg/kg (FIG. 4A) or once a week for four weeks at a reduced dose of 0.8 mg/kg (FIG. 4B). All treatments were stopped at day 50 (FIG. 4A) or 48 (FIG. 4B), respectively. […] Mitoxantrone was administered intravenously once at the beginning of the treatments at a dose of 2 mg/kg (FIG. 5A) or once a week for four weeks at a reduced dose of 0.8 mg/kg (FIG. 5B). All treatments were stopped at day 42 (FIG. 5A) or 38 (FIG. 5B), respectively. […] A2058 is a metastatic melanoma cell line. […] All treatments were stopped at day 24. […] Taxol was administered intravenously once a week at a dose of 10 mg/kg for three (FIG. 7A) or four weeks (FIG. 7C). Doxorubicin was administered intravenously once a week at a dose of 5 mg/kg for first three weeks (FIG. 7A) or for two weeks (FIG. 7C). All treatments were stopped at day 33 (FIG. 7A) or at day 26 (FIG. 7C), respectively. […] In FIG. 7C, antitumour activities were estimated by the inhibition of tumour volume, which was measured with calipers. Each point represents mean tumour volume calculated from 10 animals per experimental group. […] Taxol was administered intravenously once a week for first three weeks and intraperitoneally once a week for next two weeks at a dose of 10 mg/kg. Cisplatin was administered intravenously once a week for first three weeks and intraperitoneally once a week for next two weeks at a dose of 4 mg/kg. All treatments were stopped at day 40. Antitumour activities were estimated by the inhibition of tumour volume, which was measured with caliper. Each point represents mean tumour volume calculated from 9 animals per experimental group.

[5] = test system: MDA-CDDP-S4 human in vivo-selected Cisplatin-resistant breast adenocarcinoma cells; assay: MDA-CDDP-S4 Cisplatin-resistant breast adenocarcinoma, fat pad, SCID mice (2.3); parameters: species or system human cells in mice; details: MDA-CDDP-S4 (breast), Cisplatin resistant, SCID; SEQ ID NO:1 10 mg/kg i.v. every other day 9 times; Taxol 10 mg/kg, Cisplatin 4 mg/kg i.v. weekly x3
Experimental: as §1

[6] = test system: SK-OV-3 human ovary adenocarcinoma cells; assay: SK-OV-3 ovary tumour xenograft in CD-1 nude mice, combination with taxol or cisplatin (1.8); assay type: in vivo, human cells in mice; details: SK-OV-3 (ovary), CD-1; SEQ ID NO:1 10 mg/kg i.v. every other day 17 times; Taxol 10 mg/kg weekly; Cisplatin 4 mg/kg weekly
Experimental: as §2

[7] = test system: Caki-1 human renal cancer cells; assay: Caki-1 renal tumour xenograft, combination with 5-FU or vinblastin (1.3); assay type: in vivo, human cells in mice; details: Caki (renal), CD-1 mouse as printed; SEQ ID NO:1 10 mg/kg i.v. every other day; 5-FU 13 mg/kg/day i.p.; vinblastin 0.6 mg/kg/week i.p.
Text: All treatments were stopped at day 22. […] All treatments were stopped at day 32. […] All treatments were stopped at day 36.

[8] = test system: A498 human kidney cancer cells; assay: A498 kidney tumour xenograft in SCID mice, controls and chemotherapeutics (Example 7); assay type: in vivo, human cells in mice; details: oligonucleotides 10 mg/kg/2 days i.v., 5-FU 13 mg/kg/day×5, vinblastine 1 mg/kg/week, gemcitabine 100 mg/kg/week
Text: CD-1 athymic female nude mice, BALB/c nu/nu nude mice, SCID, and SCID beige mice were purchased from Charles River Laboratories (Montreal, Canada) and experiments were typically initiated when the mice were 6-7 weeks old. […] Each experimental group typically contained 10 mice. After the size of tumour reached a mean tumour volume of 50-100 mm^3, treatment was initiated. […] Anti-tumour activity was estimated by the measurement of tumour volume with a calliper at two-three day intervals. Tumour volume was calculated by a formula L×W×H/2, where L indicates length, W indicates width and H indicates height. Within 24 hours after the last treatment, the animals were sacrificed and tumour and body weights were measured. Results of statistical analyses of the data are presented as P values in the figure legends.
Three additional treatment groups received: 5-FU (13 mg/kg/day×5), vinblastine (1 mg/kg/week) and gemcitabine (100 mg/kg/week). […] Caliper measurements at 1-week intervals were used to calculate tumour volumes. Each point in FIG. 28C represents mean tumour volume calculated from 10 animals per experimental group (with the exception of SEQ ID NO: 1 which was 8 animals). […] After 54 days the mice were sacrificed and the A498 tumours weighed. Each bar represents the mean tumour weight and standard error calculated for each treatment group.

| SMILES | Tumour weight as % of saline control ([1]; first of two printed values (study and repeat)) | Tumour weight as % of saline control ([1]; second of two printed values (study and repeat)) | Tumour weight as % of saline control ([2]; HL-60 (leukemia), Taxol resistant, SCID, Taxol 10 mg/kg i.p. weekly) | Antitumour effect (FIG. 15) ([2]; HL-60 taxol-resistant, SCID mice, taxol 10 mg/kg i.p. weekly) | Tumour weight as % of saline control ([3]; MDA-MB435-To.1 (breast), Taxol resistant, SCID, SEQ ID NO:1 10 mg/kg i.v. every other day 15 times, Taxol 20 mg/kg, Cisplatin 4 mg/kg i.v. weekly x4) | Antitumour effect (FIG. 13) ([3]; MDA-MB435-To.1 Taxol-resistant, SCID mice, SEQ ID NO:1 10 mg/kg i.v. every other day, Cisplatin 4 mg/kg, Taxol 20 mg/kg i.v. weekly) | Tumour weight as % of saline control [4] | Tumour weight as % of saline control [5] | tumour volume data as percentage of saline control [6] | Tumour weight as % of saline control [7] | Effect on tumour growth (volume and weight) [8] |
| --- | --- | --- | --- | --- | --- | --- | --- | --- | --- | --- | --- |
| CC(=O)O[C@H]1C(=O)[C@@]2(C)[C@H]([C@H](OC(=O)c3ccccc3)[C@]3(O)C[C@H](OC(=O)[C@H](O)[C@@H](NC(=O)c4ccccc4)c4ccccc4)C(C)=C1C3(C)C)[C@]1(OC(C)=O)CO[C@@H]1C[C@@H]2O [Taxol, Paclitaxel, reference compound] | 26% | 61% | 119% | no effect on tumour growth or weight | 109% | ineffective against Taxol-resistant tumour | 58% | 32% | 49% |  |  |
| CC[C@]1(O)C[C@@H]2CN(CCc3c([nH]c4ccccc34)[C@@](C(=O)OC)(c3cc4c(cc3OC)N(C)[C@H]3[C@@](O)(C(=O)OC)[C@H](OC(C)=O)[C@]5(CC)C=CCN6CC[C@]43[C@@H]65)C2)C1 [Vinblastine, vinblastine] |  |  |  |  |  |  |  |  |  | 26% | ineffective in stabilization of the tumours; also recorded: at best, a delay in the rate of tumour growth |
